In patent US5169963A, “Di-(5-hydroxy-2(5H)2-oxo-4-furyl)alkylmethyl-alpha,omega alkanedioates and N,N-bis-(5-hydroxy-2(5H)2-oxo-4-furyl)alkylmethyl-alpha,omega-dialkanoic acid amides as anti-inflammatory agents” (Allergan, Inc., priority 1991, dated 1992) one finds IC50 data, which are given here for four molecules.

The target in assay [1] is bee venom phospholipase A2 (Apis mellifera, UniProt P00630). Put plainly: biochemical. Particulars: read-out: PLA2 IC50.
For assay [2], the target named is phosphoinositide-specific phospholipase C. Kind of assay: Inhibition of Phosphoinositide-specific Phospholipase C. Format: biochemical. Particulars: procedure of Bennett et al, Molecular Pharmacology 32:587-593 (1987); read-out: PLC IC50. From the text:
Inhibition of Phosphoinositide-specific Phospholipase C
The effect of compounds of this invention on phosphoinositide-specific phospholipase C may be determined by procedures described by Bennett et al, Molecular Pharmacology 32:587-593 (1987).

Chain of bee venom phospholipase A2 (P00630 34-167 limits assumed): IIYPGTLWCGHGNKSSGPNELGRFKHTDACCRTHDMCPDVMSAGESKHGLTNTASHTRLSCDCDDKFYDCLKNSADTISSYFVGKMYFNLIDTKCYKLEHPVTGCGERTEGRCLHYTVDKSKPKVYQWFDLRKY

With `CCCCCCCCCCCCC(OC(=O)CC(=O)OC(CCCCCCCCCCCC)C1=CC(=O)OC1O)C1=CC(=O)OC1O` (centres unmarked) [Compound 1, Bis[1-(5-hydroxy-2(5H)-furano-4-yl)tridecyl]malonate], the figures for the IC50 in assay [1] and in assay [2] were 20 nM and 2000 nM, respectively.
For the molecule `CCCCCCCCCCCCC(OC(=O)CCCC(=O)OC(CCCCCCCCCCCC)C1=CC(=O)OC1O)C1=CC(=O)OC1O` (centres unmarked) [Compound 2], the half-maximal inhibitory concentration (IC50) in assay [1] was determined as 30 nM.
Regarding `CC(=CCCC1=CCC(C2=CC(=O)OC2O)OC1O)CCC1=C(C)CCCC1(C)C` (centres unmarked) [manoalide, Manoalide, reference compound], the IC50 in assay [2] stood at 3000 nM.
On to `CCCCCCC(OC(=O)CC(=O)OC(CCCCCC)C1=CC(=O)OC1O)C1=CC(=O)OC1O` (centres unmarked) [Compound 4, Di[(1-5-hydroxy-2(5H)2-oxo-4-furyl)heptyl]malonate], for which the IC50 in assay [1] amounted to 30 nM.

Broadly, the IC50 is the concentration at which inhibition is half-maximal.
